Laboratory results published in PubChem BioAssay AID1845228.

Settings: pampa; 60.0 min; 50.0 µM

Row | SMILES | Papp [×10⁻⁶ cm/s]
1 | CCCCCCCCCC(=O)O[C@H]1CC[C@H]2[C@@H]3CCC4=CC(=O)CC[C@@H]4[C@H]3CC[C@]12C | < 1
2 | N=c1c2c(-c3ccccc3)cn(Cc3ccccc3)c2ncn1CCCCCO | 89
3 | N#Cc1cccc(-c2nc(-c3cccnc3)no2)c1 | 150
4 | CCN1CCN(C(=O)N[C@@H](C(=O)N[C@]2(OC)C(=O)N3C(C(=O)O)=C(CSc4nnnn4C)CS[C@@H]32)[C@H](C)O)C(=O)C1=O | < 1
5 | CC#CC(=O)N1CCC[C@H]1c1nc(-c2ccc(C(=O)Nc3ccccn3)cc2)c2c(N)nccn12 | < 1
6 | COc1cc(Cc2cnc(N)nc2N)cc(OC)c1OC | 14
7 | Cn1nnnc1Sc1ncnc2scc(-c3ccc4c(c3)OCO4)c12 | 240
8 | Cn1nnnc1Sc1ncnc2scc(-c3cccc(C#N)c3)c12 | 76
9 | CC(OC(=O)NCC1(CC(=O)O)CCCCC1)OC(=O)C(C)C (stereo unspecified) | 143
10 | Cn1nnnc1Sc1ncnc2scc(-c3cccc(F)c3)c12 | > 300
11 | COC1CC(=C(c2cccs2)c2cccs2)C[N+](C)(C)C1 (stereo unspecified) | < 1
12 | NC(=O)C1=C(O)[C@@]2(O)C(=O)C3=C(O)c4c(O)cccc4C[C@H]3C[C@H]2CC1=O | 9
13 | Cc1cccc(-n2nnnc2S(C)(=O)=O)c1 | 28.3
14 | CC(=O)c1cc(C(=O)N[C@@H](C)Cn2ccc(-c3ccc(C#N)c(Cl)c3)n2)[nH]n1 | 164
15 | CCN(CC)CCCN(c1ccccc1)C1Cc2ccccc2C1 | 125
16 | N=c1c2c(-c3ccccc3)c(-c3ccccc3)n(Cc3ccccc3)c2ncn1CCN | 78
17 | N=c1c2c(-c3ccccc3)c(-c3ccccc3)n(Cc3ccccc3)c2ncn1CCCCCO | 203
18 | Cn1nnnc1Sc1ncnc2scc(-c3ccc(C#N)cc3)c12 | 63
19 | Cc1[nH]c2ccccc2c1C1(O)C(=O)N(Cc2ccccc2)c2ccc(Cl)cc21 (stereo unspecified) | > 300
20 | CCCN[C@H]1CCc2nc(N)sc2C1 | 4
21 | Cn1nnnc1Sc1ncnc2scc(-c3ccc(Cl)cc3)c12 | > 300
22 | Cc1cccc(NC(=O)c2ccc(C(F)(F)F)cc2C(=O)O)n1 | < 1
23 | CC#CCC(C)[C@H](O)/C=C/[C@@H]1[C@H]2c3cccc(CCCC(=O)O)c3O[C@H]2C[C@H]1O (stereo partly specified) | < 1
24 | Oc1ccc2nc(CN3CCC(Cc4ccccc4F)CC3)[nH]c2c1 | 107
25 | Cc1onc(-c2ccccc2)c1C(=O)N[C@@H]1C(=O)N2[C@@H]1SC(C)(C)[C@@H]2C(=O)O | 8
26 | CN(CCCCCCN(C)C(=O)Oc1ccc[n+](C)c1)C(=O)Oc1ccc[n+](C)c1 | < 1

Row | SMILES | Papp [×10⁻⁶ cm/s]
27 | O=C(Nc1cnc(Cl)nc1)c1ccc(F)c(F)c1 | 61
28 | COc1c(C)c2c(c(O)c1C/C=C(\C)CCC(=O)O)C(=O)OC2 | < 1
29 | CC[n+]1c(-c2ccccc2)c2cc(N)ccc2c2ccc(N)cc21 | 2
30 | COC(Cn1cnc2c(c(-c3ccccc3)c(-c3ccccc3)n2CCc2ccccc2)c1=N)OC | 236
31 | CC1=C(C(=O)O)N2C(=O)[C@@H](N)[C@H]2SC1 | < 1
32 | CO[C@H]1/C=C\C=C(\C)C(=O)NC2=CC(=O)C(NCCN(C)C)=C(C[C@@H](C)C[C@H](OC)[C@H](O)[C@@H](C)/C=C(/C)[C@@H]1OC(N)=O)C2=O | 11.9
33 | Cc1ccc(-n2c(C)cc(-c3nnc4n3CCCCC4)c2C)cc1 | 192
34 | CCS(=O)(=O)N1CC(CC#N)(n2cc(-c3ncnc4[nH]ccc34)cn2)C1 | < 1
35 | COC(=O)c1ccccc1O[C@@H]1O[C@H](CO[C@@H]2OC[C@@H](O)[C@H](O)[C@H]2O)[C@@H](O)[C@H](O)[C@H]1O | < 1
36 | CC(=O)O[C@H]1C[C@@H](C)O[C@H]2O[C@@H]3CC4CC[C@@H]5C(CC[C@]6(C)[C@@H](C7=CC(=O)OC7)CC[C@]56O)[C@@]4(C=O)C[C@H]3O[C@]21O (stereo partly specified) | 54
37 | N#Cc1ccc(C(=O)Nc2ccc(Cl)c(-c3nc4ncccc4o3)c2)c(F)c1 | 160
38 | CCN(CC)CCNc1ccc(C)c2sc3ccccc3c(=O)c12 | > 300
39 | Cn1nnnc1SCC1=C(C(=O)O)N2C(=O)[C@H](NC(=O)C(O)c3ccccc3)C2SC1 (stereo partly specified) | < 1
40 | CCCCCCCCc1ccc(CCC(N)(CO)CO)cc1 | < 1
41 | N=c1c2c(-c3ccccc3)cn(Cc3ccccc3)c2ncn1CCNCCO | 3
42 | COc1cc(-c2nc(Cn3nnc(C(=O)Nc4cc(C)cc(C)c4)c3C)c(C)o2)cc(OC)c1OC | 17
43 | CSCC[C@H](NC(=O)[C@H](Cc1ccccc1)NC(=O)CNC(=O)CNC(=O)[C@@H](N)Cc1ccc(O)cc1)C(=O)O | < 1
44 | Cc1ccc(-c2c(C(=O)CCl)n(CCCO)c3ncnc(N)c23)cc1 | 76
45 | COC(=O)c1cccc(Cn2cnc3c(c(-c4ccccc4)c(-c4ccccc4)n3CCc3ccccc3)c2=N)c1 | 27
46 | CCCCOC(=O)NS(=O)(=O)c1sc(CC(C)C)cc1-c1ccc(Cn2ccnc2)cc1 | 180
47 | CCOc1ccc(CCNC(=O)c2cc3ccccc3n2Cc2cccc(C)n2)cc1OCC | 271
48 | CC(=O)OCC1=C(C(=O)O)N2C(=O)C(NC(=O)CCCC(N)C(=O)O)C2SC1 (stereo unspecified) | 2
49 | C1=C(c2cnc[nH]2)c2ccsc2CC1 | 5
50 | NC(=O)N1CCC(CC(=O)N2CCC([C@H]3c4ncc(Br)cc4CCc4cc(Cl)cc(Br)c43)CC2)CC1 | 73.5
51 | O=C(NCC1CCOCC1)c1cnc(Nc2ccc(Cl)cc2Cl)nc1C(F)(F)F | < 1
52 | C[C@@H](O)[C@H]1C(=O)N2C(C(=O)O)=C([C@H]3CCCO3)S[C@H]12 | < 1

Row | SMILES | Papp [×10⁻⁶ cm/s]
53 | C=CCN1CC[C@]23c4c5ccc(O)c4O[C@H]2[C@@H](OCCOCCOCCOCCOCCOCCOCCOC)CC[C@@]3(O)[C@H]1C5 | < 1
54 | C[C@H]([C@@H](O)c1ccccc1)n1cnc2c(c(-c3ccccc3)c(-c3ccccc3)n2Cc2ccccc2)c1=N | 3
55 | C[N+](C)([O-])CCNc1ccc(NCC[N+](C)(C)[O-])c2c1C(=O)c1c(O)ccc(O)c1C2=O | 40
56 | CC1(C)S[C@@H]2[C@H](NC(=O)C(C(=O)Oc3ccc4c(c3)CCC4)c3ccccc3)C(=O)N2[C@H]1C(=O)O (stereo partly specified) | < 1
57 | N=c1c2c(-c3ccccc3)c(-c3ccccc3)n(Cc3ccccc3)c2ncn1CCO | 223
58 | CN[C@H](CC(C)C)C(=O)N[C@H]1C(=O)N[C@@H](CC(N)=O)C(=O)N[C@H]2C(=O)N[C@H]3C(=O)N[C@H](C(=O)N[C@H](C(=O)O)c4cc(O)cc(O)c4-c4cc3ccc4O)[C@H](O[C@H]3C[C@](C)(N)[C@@H](O)[C@H](C)O3)c3ccc(c(Cl)c3)Oc3cc2cc(c3O[C@@H]2O[C@H](CO)[C@@H](O)[C@H](O)[C@H]2O[C@H]2C[C@](C)(NCc3ccc(-c4ccc(Cl)cc4)cc3)[C@@H](O)[C@H](C)O2)Oc2ccc(cc2Cl)[C@H]1O | 12
59 | COc1ccc(Cn2c(-c3ccccc3)c(-c3ccccc3)c3c(=N)n(CCCCCO)cnc32)cc1 | 206
60 | CN(C)CCn1nnnc1SCC1=C(C(=O)O)N2C(=O)[C@@H](NC(=O)Cc3csc(N)n3)[C@H]2SC1 | 6
61 | Cc1ccc(-c2c(C(=O)CF)n(CCCO)c3ncnc(N)c23)cc1 | 18
62 | CON=C(C(=O)N[C@@H]1C(=O)N2C(C(=O)O)=C(Cn3ccc(=N)n3CCO)CS[C@H]12)c1csc(N)n1 | < 1
63 | CCOC(=O)c1cc(=O)c2c(OCC(COc3cccc4oc(C(=O)OCC)cc(=O)c34)OC(=O)[C@@H](N)CCCCN)cccc2o1 | < 1
64 | CC(=O)Nc1c(I)c(C(=O)N[C@H]2C(O)O[C@H](CO)[C@@H](O)[C@@H]2O)c(I)c(N(C)C(C)=O)c1I (stereo partly specified) | 2
65 | C/C(=C\c1csc(C)n1)[C@@H]1C[C@@H]2O[C@]2(C)CCC[C@H](C)[C@H](O)[C@@H](C)C(=O)C(C)(C)[C@@H](O)CC(=O)N1 | 1.7
66 | O=C1C[C@@]2(C(=O)N1)C(=O)N(Cc1ccc(Br)cc1F)C(=O)c1cccn12 | 21
67 | O=C(Nc1cnn2ccc(N3CCC[C@@H]3c3cc(F)ccc3F)nc12)N1CC[C@H](O)C1 | 3
68 | Cn1nnnc1Sc1ncnc2scc(-c3cccs3)c12 | 244
69 | Cc1[nH]c2ccccc2c1CCNCc1ccc(C=CC(=O)NO)cc1 | < 1
70 | Cc1ccc(NC(=O)c2ccc(CN3CCN(C)CC3)cc2)cc1Nc1nc(-c2cccnc2)cs1 | 100
71 | O=C(Cc1cccs1)NC1C(=O)N2C(C(=O)[O-])=C(C[n+]3ccccc3)CSC12 (stereo unspecified) | < 1
72 | COCCNCCCn1c(C(=O)CF)c(-c2ccc(C)cc2)c2c(N)ncnc21 | 20
73 | CO/N=C(/C(=O)N[C@@H]1C(=O)N2C(C(=O)O)=CCS[C@H]12)c1csc(N)n1 | < 1
74 | Cc1ccc(-c2csc3ncnc(Sc4nnnn4C)c23)cc1 | > 300
75 | Nc1c(C(=O)Nc2ccc(Cl)c(C(F)(F)F)c2)sc2nc3c(cc12)N1CCC3CC1 | 213
76 | O=C(c1ccc(-c2ncc3cnc(-c4cccc(F)c4)cn23)cc1)N1CC(O)C1 | 27
